From patent publication US11707454B2, “Topical roflumilast formulation having antifungal properties” (ARCUTIS BIOTHERAPEUTICS, INC., priority 2020, dated 2023)
Values after ≈ are worked out from the molar mass of the structure shown. Like-named read-outs stand apart in the source and are kept apart here.

Key:
Type in all cases: cell-based
C. albicans (ATCC 90028) = assay: in vitro micro-dilution susceptibility assay (method of Rojas); conditions: Candida albicans, read-out: minimum inhibition concentration (MIC)
Protocol: (§1) The in vitro susceptibility of Malassezia species to roflumilast was determined utilizing three Candida species as internal control isolates for all testing. These three isolates were C. albicans American Type Culture Collection (ATCC) 90028, C. krusei (ATCC 6258) and C. parapsilosis (ATCC 22019). In addition to testing roflumilast all susceptibility assays were conducted using ketoconazole and hydrocortisone as positive and negative control compounds, respectively. All assays were placed within a humidified incubator set to 32° C. for a total of seven days. Each assay was evaluated after 12 hours of incubation and, every 24 hours post incubation for a total of seven days. The assays were evaluated for visual growth of each pathogen in the no treatment control as well as determination of minimum inhibition concentration (MIC) values. The concentration that provides a 3-log10 CFU/mL reduction in fungal burden from baseline at day 0 was defined as the minimum fungicidal concentration (MHC) and was determined by quantifying fungal burdens found in the microplate at day seven.
(§2) The method of Rojas (Rojas F D, et al. Antifungal susceptibility of Malassezia furfur, Malassezia sympodialis, and Malassezia globose to azole drugs and amphotericin B evaluated using a broth microdilution method. 2014. Medical Mycology. 52:641-646) was used in which the liquid broth medium was RPMI 1640 with added 1.8% glucose, 1% peptone, 0.5% ox-bile, 0.5% malt extract, 1% glycerol, 0.5% Tween 40 and 0.05% Tween 80. Round bottom 96 well microplates were used. The inoculums were prepared in sterile saline and diluted to a final targeted concentration of 0.5×10^5 to 2.5×10^5 CFU/mL in supplemented RPMI. […] For the internal control isolate C. parapsilosis (ATCC 22019) the expected CLSI values for ketoconazole of 0.03-0.25 (at 24 hours) and 0.06-0.5 (at 48 hours) did agree with the 2-day value (Table A) of 0.5.

C. krusei (ATCC 6258) = assay: as above; conditions: Pichia kudriavzevii, read-out: minimum inhibition concentration (MIC)
Protocol: as §1, §2

[1] = tested on: C. parapsilosis (ATCC 22019); assay: as above; conditions: Lodderomyces parapsilosis, C. parapsilosis (22019), read-out: minimum inhibition concentration (MIC)
Protocol: as §1, §2

M. furfur (ATCC 12078) = assay: as above; conditions: for MIC: Malassezia furfur, read-out: minimum inhibition concentration (MIC)
Protocol: as §1, §2

M. furfur (ATCC 14521) = assay: as above
Protocol: as §1, §2

M. furfur (ATCC 44344) = assay: as above; conditions: for MIC: Malassezia furfur, read-out: minimum inhibition concentration (MIC)
Protocol: as §1, §2

[2] = tested on: M. globose (ATCC MYA-4889); assay: as above; conditions: for MIC: read-out: minimum inhibition concentration (MIC)
Protocol: as §1, §2

[3] = tested on: M. restricta (ATCC MYA-4611); assay: as above; conditions: for MIC: read-out: minimum inhibition concentration (MIC)
Protocol: as §1, §2

Candida species = assay: in vitro micro-dilution susceptibility assay, summary; conditions: method of Rojas
Protocol: as §1, with “seven. […]” for “seven.”

Malassezia species = assay: as above; conditions: compared to the hydrocortisone negative control
Protocol: as §1, with “seven. […]” for “seven.”

Q: For O=C(Nc1c(Cl)cncc1Cl)c1ccc(OC(F)F)c(OCC2CC2)c1 [Roflumilast, N-(3,5-dichloropyrid-4-yl)-3-cyclopropylmethoxy-4-difluoromethoxybenzamid-e], which MIC (C. albicans (ATCC 90028); ATCC90028, 12 h, Time 0.5 days) is on record?
A: > 1020 µg/mL

Q: And the MIC (C. albicans (ATCC 90028); ATCC90028, 24 h, Time 1 days)?
A: > 1020 µg/mL

Q: What about the MIC (C. albicans (ATCC 90028); ATCC90028, 48 h, Time 2 days) of the same compound?
A: > 1020 µg/mL

Q: What about the MIC (C. albicans (ATCC 90028); ATCC90028, 72 h, Time 3 days) of the same compound?
A: > 1020 µg/mL

Q: And the MIC (C. albicans (ATCC 90028); ATCC90028, 96 h, Time 4 days)?
A: > 1020 µg/mL

Q: And the MIC (C. albicans (ATCC 90028); ATCC90028, 120 h, Time 5 days)?
A: > 1020 µg/mL

Q: And the MIC (C. albicans (ATCC 90028); ATCC90028, 144 h, Time 6 days)?
A: > 1020 µg/mL

Q: And the MIC (C. albicans (ATCC 90028); ATCC90028, 168 h, Time 7 days)?
A: > 1020 µg/mL

Q: What about the MIC (C. krusei (ATCC 6258); ATCC6258, 12 h, Time 0.5 days) of the same compound?
A: 128 µg/mL (≈ 317 µM)

Q: What about the MIC (C. krusei (ATCC 6258); ATCC6258, 24 h, Time 1 days) of the same compound?
A: 1020 µg/mL (≈ 2540 µM)

Q: And the MIC (C. krusei (ATCC 6258); ATCC6258, 48 h, Time 2 days)?
A: > 1020 µg/mL

Q: And the MIC (C. krusei (ATCC 6258); ATCC6258, 72 h, Time 3 days)?
A: > 1020 µg/mL

Q: What about the MIC (C. krusei (ATCC 6258); ATCC6258, 96 h, Time 4 days) of the same compound?
A: > 1020 µg/mL

Q: And the MIC (C. krusei (ATCC 6258); ATCC6258, 120 h, Time 5 days)?
A: > 1020 µg/mL

Q: What about the MIC (C. krusei (ATCC 6258); ATCC6258, 144 h, Time 6 days) of the same compound?
A: > 1020 µg/mL

Q: And the MIC (C. krusei (ATCC 6258); ATCC6258, 168 h, Time 7 days)?
A: > 1020 µg/mL

Q: And the MIC ([1]; ATCC22019, 12 h, Time 0.5 days)?
A: 1020 µg/mL (≈ 2540 µM)

Q: And the MIC ([1]; ATCC22019, 24 h, Time 1 days)?
A: 1020 µg/mL (≈ 2540 µM)

Q: What about the MIC ([1]; ATCC22019, 48 h, Time 2 days) of the same compound?
A: > 1020 µg/mL

Q: And the MIC ([1]; ATCC22019, 72 h, Time 3 days)?
A: > 1020 µg/mL

Q: And the MIC ([1]; ATCC22019, 96 h, Time 4 days)?
A: > 1020 µg/mL

Q: And the MIC ([1]; ATCC22019, 120 h, Time 5 days)?
A: > 1020 µg/mL

Q: And the MIC ([1]; ATCC22019, 144 h, Time 6 days)?
A: > 1020 µg/mL

Q: What about the MIC ([1]; ATCC22019, 168 h, Time 7 days) of the same compound?
A: > 1020 µg/mL

Q: What about the MIC (M. furfur (ATCC 12078); ATCC12078, 48 h, Time 2 days) of the same compound?
A: 128 µg/mL (≈ 317 µM)

Q: And the MIC (M. furfur (ATCC 12078); ATCC12078, 72 h, Time 3 days)?
A: 128 µg/mL (≈ 317 µM)

Q: What about the MIC (M. furfur (ATCC 12078); ATCC12078, 96 h, Time 4 days) of the same compound?
A: 128 µg/mL (≈ 317 µM)

Q: What about the MIC (M. furfur (ATCC 12078); ATCC12078, 120 h, Time 5 days) of the same compound?
A: 128 µg/mL (≈ 317 µM)

Q: And the MIC (M. furfur (ATCC 12078); ATCC12078, 144 h, Time 6 days)?
A: 128 µg/mL (≈ 317 µM)

Q: What about the MIC (M. furfur (ATCC 12078); ATCC12078, 168 h, Time 7 days) of the same compound?
A: 128 µg/mL (≈ 317 µM)

Q: What about the “minimum inhibition concentration (MIC)” value (M. furfur (ATCC 12078); Time 0.5 days) of the same compound?
A: NGO

Q: What about the “minimum inhibition concentration (MIC)” value (M. furfur (ATCC 12078); Time 1 days) of the same compound?
A: NGO

Q: And the “minimum inhibition concentration (MIC)” value (M. furfur (ATCC 14521); Time 0.5 days)?
A: NGO

Q: What about the “minimum inhibition concentration (MIC)” value (M. furfur (ATCC 14521); Time 1 days) of the same compound?
A: NGO

Q: And the MIC (M. furfur (ATCC 44344); ATCC44344, 48 h, Time 2 days)?
A: 64 µg/mL (≈ 159 µM)

Q: What about the MIC (M. furfur (ATCC 44344); ATCC44344, 72 h, Time 3 days) of the same compound?
A: 64 µg/mL (≈ 159 µM)

Q: What about the MIC (M. furfur (ATCC 44344); ATCC44344, 96 h, Time 4 days) of the same compound?
A: 64 µg/mL (≈ 159 µM)

Q: And the MIC (M. furfur (ATCC 44344); ATCC44344, 120 h, Time 5 days)?
A: 64 µg/mL (≈ 159 µM)

Q: What about the MIC (M. furfur (ATCC 44344); ATCC44344, 144 h, Time 6 days) of the same compound?
A: 64 µg/mL (≈ 159 µM)

Q: And the MIC (M. furfur (ATCC 44344); ATCC44344, 168 h, Time 7 days)?
A: 64 µg/mL (≈ 159 µM)

Q: And the “minimum inhibition concentration (MIC)” value (M. furfur (ATCC 44344); Time 0.5 days)?
A: NGO

Q: And the “minimum inhibition concentration (MIC)” value (M. furfur (ATCC 44344); Time 1 days)?
A: NGO

Q: And the MIC ([2]; 48 h, Time 2 days)?
A: 32 µg/mL (≈ 79.4 µM)

Q: What about the MIC ([2]; 72 h, Time 3 days) of the same compound?
A: 32 µg/mL (≈ 79.4 µM)

Q: What about the MIC ([2]; 96 h, Time 4 days) of the same compound?
A: 128 µg/mL (≈ 317 µM)

Q: And the MIC ([2]; 120 h, Time 5 days)?
A: 128 µg/mL (≈ 317 µM)

Q: What about the MIC ([2]; 144 h, Time 6 days) of the same compound?
A: 128 µg/mL (≈ 317 µM)

Q: What about the MIC ([2]; 168 h, Time 7 days) of the same compound?
A: 128 µg/mL (≈ 317 µM)

Q: What about the “minimum inhibition concentration (MIC)” value ([2]; Time 0.5 days) of the same compound?
A: NGO

Q: What about the “minimum inhibition concentration (MIC)” value ([2]; Time 1 days) of the same compound?
A: NGO

Q: And the MIC ([3]; 48 h, Time 2 days)?
A: 32 µg/mL (≈ 79.4 µM)

Q: What about the MIC ([3]; 72 h, Time 3 days) of the same compound?
A: 32 µg/mL (≈ 79.4 µM)

Q: And the MIC ([3]; 96 h, Time 4 days)?
A: 32 µg/mL (≈ 79.4 µM)

Q: What about the MIC ([3]; 120 h, Time 5 days) of the same compound?
A: 32 µg/mL (≈ 79.4 µM)

Q: And the MIC ([3]; 144 h, Time 6 days)?
A: 32 µg/mL (≈ 79.4 µM)

Q: And the MIC ([3]; 168 h, Time 7 days)?
A: 64 µg/mL (≈ 159 µM)

Q: What about the “minimum inhibition concentration (MIC)” value ([3]; Time 0.5 days) of the same compound?
A: NGO

Q: What about the “minimum inhibition concentration (MIC)” value ([3]; Time 1 days) of the same compound?
A: NGO

Q: And the “antifungal activity against the tested Candida species” value (Candida species)?
A: did not demonstrate antifungal activity

Q: What about the “antifungal activity against Malassezia species” value (Malassezia species) of the same compound?
A: provides antifungal activity against Malassezia species
